Measurements: patent US10112929B2, “Lactams as inhibitors of rock” (BRISTOL-MYERS SQUIBB COMPANY, priority 2015, dated 2018)
pIC50: −log10 of the molar value. Structures can show the parent of a compound that is named as a salt.

Molecular target: ROCK2 (Homo sapiens (Human), UniProt O75116)
Assay: biochemical
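Also: rho kinase enzyme reaction halted with EDTA, phospho- and non-phospho peptide separated for read-out, kinase activity inhibition derived across a dose-response series, DMSO under 2%.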

Chain of ROCK2 (O75116 whole entry, species assumed): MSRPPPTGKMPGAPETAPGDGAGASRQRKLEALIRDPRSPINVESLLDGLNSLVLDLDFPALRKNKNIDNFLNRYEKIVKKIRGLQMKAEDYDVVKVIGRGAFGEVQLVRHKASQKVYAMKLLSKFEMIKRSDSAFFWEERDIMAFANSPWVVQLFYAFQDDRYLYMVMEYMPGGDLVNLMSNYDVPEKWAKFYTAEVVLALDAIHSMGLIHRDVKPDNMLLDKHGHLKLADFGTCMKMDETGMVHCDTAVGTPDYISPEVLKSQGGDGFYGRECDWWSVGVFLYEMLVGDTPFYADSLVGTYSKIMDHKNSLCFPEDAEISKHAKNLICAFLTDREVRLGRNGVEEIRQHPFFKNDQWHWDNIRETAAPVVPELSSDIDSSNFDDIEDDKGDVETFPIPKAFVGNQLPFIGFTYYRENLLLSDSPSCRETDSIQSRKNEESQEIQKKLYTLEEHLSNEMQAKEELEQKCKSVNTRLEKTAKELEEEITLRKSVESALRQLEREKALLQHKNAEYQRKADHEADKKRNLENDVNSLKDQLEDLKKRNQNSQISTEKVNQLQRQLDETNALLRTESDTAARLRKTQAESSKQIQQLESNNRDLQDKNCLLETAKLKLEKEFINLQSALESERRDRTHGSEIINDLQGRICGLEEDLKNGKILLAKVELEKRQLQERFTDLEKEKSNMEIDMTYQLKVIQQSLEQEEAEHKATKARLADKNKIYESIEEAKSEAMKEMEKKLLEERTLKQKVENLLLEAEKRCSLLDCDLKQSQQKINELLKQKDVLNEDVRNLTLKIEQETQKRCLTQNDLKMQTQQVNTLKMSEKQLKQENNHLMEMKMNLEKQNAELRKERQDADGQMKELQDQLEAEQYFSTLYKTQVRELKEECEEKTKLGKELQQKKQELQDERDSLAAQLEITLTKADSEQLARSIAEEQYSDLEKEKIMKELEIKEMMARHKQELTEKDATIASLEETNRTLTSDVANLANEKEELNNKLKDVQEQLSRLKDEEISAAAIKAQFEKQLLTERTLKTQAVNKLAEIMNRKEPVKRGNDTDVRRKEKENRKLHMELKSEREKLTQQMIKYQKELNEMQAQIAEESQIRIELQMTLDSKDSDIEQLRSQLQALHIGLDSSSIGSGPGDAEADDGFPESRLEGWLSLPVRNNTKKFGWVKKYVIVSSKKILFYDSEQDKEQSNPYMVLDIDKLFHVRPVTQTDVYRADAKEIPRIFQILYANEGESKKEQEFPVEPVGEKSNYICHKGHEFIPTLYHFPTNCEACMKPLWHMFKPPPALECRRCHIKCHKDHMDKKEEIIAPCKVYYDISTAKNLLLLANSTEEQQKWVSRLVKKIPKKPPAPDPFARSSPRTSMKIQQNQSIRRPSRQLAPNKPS

| pIC50 | SMILES |
| --- | --- |
| 7.00 to 8.00 | COc1cccc(NC2CCN(c3ccc(-c4ccnc5[nH]ccc45)c(C)n3)C2=O)c1 (single isomer, unassigned) [Example 120, 3-((3-methoxyphenyl)amino)-1-(6-methyl-5-(1H-pyrrolo[2,3-b]pyridin-4-yl)pyridin-2-yl)pyrrolidin-2-one] |
| 5.66 to 7.00 | COc1nc(N2CCC(N3CC[C@H](NC(C)=O)C3)C2=O)ccc1-c1cn[nH]c1 (mixture of isomers) [Example 294, N-((3S)-1′-(6-methoxy-5-(1H-pyrazol-4-yl)pyridin-2-yl)-2′-oxo-[1,3′-bipyrrolidin]-3-yl)acetamide] |
| 7.00 to 8.00 | COc1cccc(NC2CCN(c3ccc(-c4cn[nH]c4)cc3F)C2=O)c1 (single isomer, unassigned) [Example 328, 1-(2-fluoro-4-(1H-pyrazol-4-yl)phenyl)-3-((3-methoxyphenyl)amino)pyrrolidin-2-one] |
| > 8.00 | COc1cc(F)cc(NC2CCN(c3ccc(-c4cn[nH]c4)cn3)C2=O)c1 (single isomer, unassigned) [Example 88, 1-(5-(1H-pyrazol-4-yl)pyridin-2-yl)-3-((3-fluoro-5-methoxyphenyl)amino)pyrrolidin-2-one] |
| 5.66 to 7.00 | COc1nc(N2CCC(N3CCC(N(C)C)CC3)C2=O)ccc1-c1cn[nH]c1 (racemic) [Example 276, 3-(4-(dimethylamino)piperidin-1-yl)-1-(6-methoxy-5-(1H-pyrazol-4-yl)pyridin-2-yl)pyrrolidin-2-one] |
| > 8.00 | COc1cc(F)cc(NC2CCN(c3ccc(-c4cn[nH]c4)cc3)C2=O)c1 (stereo not drawn) [Example 3, 1-(4-(1H-pyrazol-4-yl)phenyl)-3-((3-fluoro-5-methoxyphenyl)amino)pyrrolidin-2-one] |
| 5.66 to 7.00 | CCc1cc(N2CCC(Nc3ccc(F)c(OC)c3)C2=O)ncc1-c1cn[nH]c1 (single isomer, unassigned) [Example 210, 1-(4-ethyl-5-(1H-pyrazol-4-yl)pyridin-2-yl)-3-((4-fluoro-3-methoxyphenyl)amino) pyrrolidin-2-one] |
| 5.66 to 7.00 | COc1cccc(OC2CCN(c3ccc(-c4ccc5cn[nH]c5c4)c(OC)n3)C2=O)c1 (single isomer, unassigned) [Example 124, 1-(5-(1H-indazol-6-yl)-6-methoxypyridin-2-yl)-3-(3-methoxyphenoxy)pyrrolidin-2-one] |
| 5.66 to 7.00 | COc1c(F)cccc1NC1CCN(c2ccc(-c3cn[nH]c3)c(C#N)c2)C1=O (single isomer, unassigned) [Example 376, 5-(3-((3-fluoro-2-methoxyphenyl)amino)-2-oxopyrrolidin-1-yl)-2-(1H-pyrazol-4-yl)benzonitrile] |
| 5.66 to 7.00 | O=C1C(Nc2ccc3c(c2)OC(F)(F)O3)CCN1c1ccc(-c2cn[nH]c2)cc1 (single isomer, unassigned) [Example 53, 1-(4-(1H-pyrazol-4-yl)phenyl)-3-((2,2-difluorobenzo[d][1,3]dioxol-5-yl)amino)pyrrolidin-2-one] |
| 7.00 to 8.00 | CC(C)Oc1cccc(NC2CCN(c3ccc(-c4cn[nH]c4)cc3)C2=O)c1 (stereo not drawn) [Example 10, 1-(4-(1H-pyrazol-4-yl)phenyl)-3-((3-isopropoxyphenyl)amino)pyrrolidin-2-one] |
| 7.00 to 8.00 | O=C1C(Nc2cnccn2)CCN1c1ccc(-c2cn[nH]c2)cc1 (racemic) [Example 226, 1-(4-(1H-pyrazol-4-yl)phenyl)-3-(pyrazin-2-ylamino)pyrrolidin-2-one] |
| > 8.00 | COc1cccc(NC2CCN(c3ccc(-c4cn[nH]c4)c(OC)n3)C2=O)c1C (stereo not drawn) [Example 117, 3-((3-Methoxy-2-methylphenyl)amino)-1-(6-methoxy-5-(1H-pyrazol-4-yl)pyridin-2-yl)pyrrolidin-2-one] |
| > 8.00 | O=C1C(Nc2cccc(OCC(F)F)c2)CCN1c1ccc(-c2cn[nH]c2)cc1 (single isomer, unassigned) [Example 237, 1-(4-(1H-pyrazol-4-yl)phenyl)-3-((3-(2,2-difluoroethoxy)phenyl)amino)pyrrolidin-2-one] |
| 5.66 to 7.00 | COc1cccc(N[C@@H]2CCN(c3ccc(-c4cn[nH]c4)cc3)C2=O)c1OC [Example 385, (R)-1-(4-(1H-pyrazol-4-yl)phenyl)-3-((2,3-dimethoxyphenyl)amino)pyrrolidin-2-one] |
| 7.00 to 8.00 | COc1cccc(NC2CCN(c3ccc(-c4cn[nH]c4)cc3)C2=O)c1C (single isomer, unassigned) [Example 325, 1-(4-(1H-pyrazol-4-yl)phenyl)-3-((3-methoxy-2-methylphenyl)amino) pyrrolidin-2-one] |
| > 8.00 | COc1cccc(NC2CCN(c3ccc(-c4cn[nH]c4)c(F)c3)C2=O)c1 (single isomer, unassigned) [Example 45, 1-(3-fluoro-4-(1H-pyrazol-4-yl)phenyl)-3-((3-methoxyphenyl)amino)pyrrolidin-2-one] |
| 5.66 to 7.00 | COc1cccc(NC2CCN(c3ccc(-c4cn[nH]c4)c(C(O)C(F)(F)F)c3)C2=O)c1 (racemic) [Example 348, 1-(4-(1H-pyrazol-4-yl)-3-(2,2,2-trifluoro-1-hydroxyethyl)phenyl)-3-((3-methoxyphenyl)amino)pyrrolidin-2-one] |

| pIC50 | SMILES |
| --- | --- |
| 5.66 to 7.00 | COc1cc(NC2CCN(c3ccc(-c4cn[nH]c4)c(C#N)c3)C2=O)ccc1F (single isomer, unassigned) [Example 379, 5-(3-((4-fluoro-3-methoxyphenyl)amino)-2-oxopyrrolidin-1-yl)-2-(1H-pyrazol-4-yl)benzonitrile] |
| 5.66 to 7.00 | COc1cc(NC2CCN(c3ccc(-c4cn[nH]c4)c(C(F)F)c3)C2=O)ccc1F (single isomer, unassigned) [Example 180, 1-(3-(difluoromethyl)-4-(1H-pyrazol-4-yl)phenyl)-3-((4-fluoro-3-methoxyphenyl)amino)pyrrolidin-2-one] |
| 7.00 to 8.00 | O=C1C(Oc2ccccc2)CCN1c1ccc(-c2cn[nH]c2)cc1 (stereo not drawn) [Example 64, 1-(4-(1H-pyrazol-4-yl)phenyl)-3-phenoxypyrrolidin-2-one] |
| 7.00 to 8.00 | O=C1C(Oc2ccccc2Cl)CCN1c1ccc(-c2cn[nH]c2)cc1 (stereo not drawn) [Example 110, 1-(4-(1H-pyrazol-4-yl)phenyl)-3-(2-chlorophenoxy)pyrrolidin-2-one] |
| > 8.00 | CCc1nc(N2CCC(Nc3cccc(OC)c3)C2=O)ccc1-c1cn[nH]c1 (single isomer, unassigned) [Example 313, 1-(6-ethyl-5-(1H-pyrazol-4-yl)pyridin-2-yl)-3-((3-methoxyphenyl)amino) pyrrolidin-2-one] |
| 5.66 to 7.00 | COc1nc(N2CCC(Nc3cnn(C(C)C)c3)C2=O)ccc1-c1cn[nH]c1 (racemic) [Example 272, 3-((1-isopropyl-1H-pyrazol-4-yl)amino)-1-(6-methoxy-5-(1H-pyrazol-4-yl)pyridin-2-yl)pyrrolidin-2-one] |
| > 8.00 | COc1cccc(NC2C(=O)N(c3ccc(-c4cn[nH]c4)cc3)C[C@H]2CO)c1 (single isomer, unassigned) [Example 323] |
| 7.00 to 8.00 | COc1cccc(NC2CCN(c3ccc(-c4cn[nH]c4)c(C4CC4)c3)C2=O)c1 (single isomer, unassigned) [Example 363, 1-(3-cyclopropyl-4-(1H-pyrazol-4-yl)phenyl)-3-((3-methoxyphenyl)amino) pyrrolidin-2-one] |
| 7.00 to 8.00 | CNc1nc(N2CCC(Nc3cccc(OC)c3)C2=O)ccc1-c1cn[nH]c1 (single isomer, unassigned) [Example 253, 3-((3-methoxyphenyl)amino)-1-(6-(methylamino)-5-(1H-pyrazol-4-yl)pyridin-2-yl)pyrrolidin-2-one] |
| 5.66 to 7.00 | COc1nc(N2CCC(N3CCC(OC)CC3)C2=O)ccc1-c1cn[nH]c1 (racemic) [Example 291, 1-(6-methoxy-5-(1H-pyrazol-4-yl)pyridin-2-yl)-3-(4-methoxypiperidin-1-yl)pyrrolidin-2-one hydrochloride] |
| 7.00 to 8.00 | COc1nc(N2CCC(Nc3cccc(NS(C)(=O)=O)c3)C2=O)ccc1-c1cn[nH]c1 (racemic) [Example 265, N-(3-((1-(6-methoxy-5-(1H-pyrazol-4-yl)pyridin-2-yl)-2-oxopyrrolidin-3-yl)amino)phenyl)methanesulfonamide] |
| 7.00 to 8.00 | COc1cc(F)cc(NC2CCN(c3ccc(-c4cn[nH]c4)c(C(F)(F)F)c3)C2=O)c1 (single isomer, unassigned) [Example 370, 1-(4-(1H-pyrazol-4-yl)-3-(trifluoromethyl)phenyl)-3-((3-fluoro-5-methoxyphenyl)amino)pyrrolidin-2-one] |
| > 8.00 | COc1cc(F)cc(NC2CCN(c3ccc(-c4cn[nH]c4)c(OC)n3)C2=O)c1 (single isomer, unassigned) [Example 198, 3-((3-fluoro-5-methoxyphenyl)amino)-1-(6-methoxy-5-(1H-pyrazol-4-yl)pyridin-2 yl)pyrrolidin-2-one] |
| 7.00 to 8.00 | COc1cc(F)cc(NC2CCN(c3ccc(-c4cn[nH]c4)c(F)c3F)C2=O)c1 (single isomer, unassigned) [Example 309, 1-(2,3-difluoro-4-(1H-pyrazol-4-yl)phenyl)-3-((3-fluoro-5-methoxyphenyl)amino)pyrrolidin-2-one] |
| 5.66 to 7.00 | COc1cc(NC2CCN(c3ccc(-c4cn[nH]c4)c(OC)c3)C2=O)ccc1F (single isomer, unassigned) [Example 154, 3-((4-fluoro-3-methoxyphenyl)amino)-1-(3-methoxy-4-(1H-pyrazol-4-yl)phenyl) pyrrolidin-2-one] |
| 7.00 to 8.00 | COc1cc(F)cc(NC2CCN(c3ccc(-c4cn[nH]c4)cc3F)C2=O)c1 (single isomer, unassigned) [Example 338, 1-(2-fluoro-4-(1H-pyrazol-4-yl)phenyl)-3-((3-fluoro-5-methoxyphenyl)amino) pyrrolidin-2-one] |
| 5.66 to 7.00 | COc1ccc(NC2CCN(c3ccc(-c4cn[nH]c4)c(OC)c3)C2=O)cc1F (single isomer, unassigned) [Example 141, 3-((3-fluoro-4-methoxyphenyl)amino)-1-(3-methoxy-4-(1H-pyrazol-4-yl)phenyl) pyrrolidin-2-one] |
| 5.66 to 7.00 | COc1ccc(N2CCN(C3CCN(c4ccc(-c5cn[nH]c5)c(OC)n4)C3=O)CC2)cc1 (racemic) [Example 287, 1-(6-methoxy-5-(1H-pyrazol-4-yl)pyridin-2-yl)-3-(4-(4-methoxyphenyl)piperazin-1-yl)pyrrolidin-2-one dihydrochloride] |
